Test results as given in the NIST ThermoML archive (doi:10.1016/j.jct.2009.03.005).

Assay: wn = mass fraction of the nth substance listed
Conditions: 298.15 K, 101 kPa, Liquid; for viscosity: Capillary tube (Ostwald / Ubbelohde) method; for mass density: Pycnometric method

C[S+](C)[O-] [dimethyl sulfoxide] + CC#N
Conditions | mass density [kg/m3] | viscosity [mPa·s]
w1 = 0.2 | 829.3 | 0.4196
w1 = 0.4 | 883.3 | 0.5249
w1 = 0.6 | 945.6 | 0.7147
